These results are taken from publication PMC9308172 (Journal of medicinal chemistry, 2017).

Where two headings read alike, the source gives them in different places.

For test [1], the target named is T1, M2TMWT (Influenza A virus, UniProt P0DOF5). As to conditions: cited from earlier work.
Test [2] relates to A/California/07/2009 (H1N1) M2: N31. As to conditions: cited from earlier work.
Test [3] has as its target T1, M2TMWT. It is filed as binding.

T1 sequence (P0DOF5 22-46 limits assumed): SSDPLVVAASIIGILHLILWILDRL

For the molecule `CCCC1(N)C2CC3CC(C2)CC1C3` (stereo not drawn) [Compound 5], in test [1], the TΔS is 0.932 ± 0.347 kcal/mol, the ΔG is -8.707 ± 0.165 kcal/mol and the ΔH is -7.796 ± 0.308 kcal/mol. In addition, in test [2], the “% block after 3 min” value is given as 0 ± 5 (100 μM; 2) % and the “% block after 30 min” value is recorded as 9 ± 10 (100 μM, 3) %.

`CN1CCCC12C1CC3CC(C1)CC2C3` (stereo not drawn) [Compound 7]: in test [1], the TΔS was 4.46 ± 0.361 kcal/mol, the ΔG was -8.279 ± 0.229 kcal/mol and the ΔH was -3.819 ± 0.28 kcal/mol.

As to `CC12CC3CC(CC(C3)C13CCCN3)C2` (stereo not drawn) [Compound 8, 1′-Methylspiro[pyrrolidine-2,2′-adamantane]], in test [1], the TΔS was 3 ± 0.37 kcal/mol, the ΔG is -8.081 ± 0.201 kcal/mol and the ΔH was -5.079 ± 0.311 kcal/mol.

In the case of `CC1(N)C2CC3CC(C2)CC1C3` (stereo not drawn) [Compound 3], in test [1], the TΔS was 1.51 ± 0.289 kcal/mol, the ΔG was -8.31 ± 0.129 kcal/mol and the ΔH is -6.79 ± 0.261 kcal/mol.

`NC12CC3CC(CC(C3)C1)C2` [Compound 1, Amantadine, reference compound]: in test [1], the TΔS is 1.11 ± 0.521 kcal/mol, the ΔG is -7.77 ± 0.141 kcal/mol and the ΔH was -6.661 ± 0.5 kcal/mol. The “% block after 3 min” value in test [2] is listed as 14 ± 2 (100 μM; 26) %.

As to `NC1(C23CC4CC(CC(C4)C2)C3)CCCC1` [Compound 9], the ΔG in test [3] was -6.637 ± 0.189 kcal/mol.

Consider `CCC1(N)C2CC3CC(C2)CC1C3` (stereo not drawn) [Compound 4], for which, in test [1], the TΔS is 1.38 ± 0.251 kcal/mol, the ΔG was -8.521 ± 0.129 kcal/mol and the ΔH is -7.139 ± 0.21 kcal/mol.

On to `C1CNC2(C1)C1CC3CC(C1)CC2C3` (stereo not drawn) [Compound 6], for which, in test [1], the TΔS is 3.97 ± 0.614 kcal/mol, the ΔG was -9.109 ± 0.44 kcal/mol and the ΔH was -5.136 ± 0.421 kcal/mol.

`NC1C2CC3CC(C2)CC1C3` (stereo not drawn) [Compound 2]: in test [1], the TΔS is 0.93 ± 0.44 kcal/mol, the ΔG was -7.959 ± 0.129 kcal/mol and the ΔH is -7.029 ± 0.421 kcal/mol. Also, in test [2], the “% block after 3 min” value is 13 ± 3 (100 μM; 2) % and the “% block after 30 min” value is given as 16 (100 μM; 1) %.
